Test results from US20070031511A1, “Method of treatment” (priority 2003, published 2007).
“Also recorded” adds a separate entry of the source.

What was measured:
IMGE-5 cells [1] = assay: Wound healing / cell migration assay; assay type: cell-based, mice
Protocol: The IMGE-5 cell line was established from the gastric mucosa of mice transgenic for a temperature-sensitive mutant of the SV40 large T antigen (Hollande et al, 2001). IMGE-5 cells were generally grown at 33° C. in DMEM containing 1 unit/ml γ-interferon, 10% FBS, 100 U/ml penicillin, and 100 μg/ml streptomycin (permissive conditions). For all experiments, cells were transferred to 39° C. in the same medium without […] (non-permissive conditions), where they display differentiated characteristics such as expression of functional adherens and tight junctions. All experiments have been performed on cells between passages 20 and 35.
In order to assess the effects of different stimuli on cell migration, wound healing experiments were performed as detailed elsewhere (Hollande et al, 1997). In brief, IMGE-5 cells were grown in 12-well plates in DMEM at 33° C. until they reached 80% confluence, then shifted to 39° C. and starved of serum for 24 h. The confluent monolayer was wounded using a 20 μl-pipette tip, and cells were then washed 3 times with phosphate-buffered saline (PBS: 2.7 mM KCl, 1.5 MM KH2PO4, 142 mM NaCl, and 10 mM Na2HPO4, pH 6.95) and treated with or without different compounds in DMEM with antibiotics. Morphology and migration of cells were observed and photographed immediately, and after treatment for 17 and 24 h. Wound width was measured at six different positions on the 24 h photographs, and averages calculated.

human hepatomas = conditions: Hann et al, 1992; cited from earlier work
IMGE-5 cells [2] = assay: IMGE-5 cell proliferation, MTT assay; assay type: cell-based, mice; conditions: DFO 1 μM
hepatoma cell lines = conditions: Kicic et al, 2001; cited from earlier work
CCK-2 receptor = biological target: T1, CCK-2 receptor (Homo sapiens, UniProt P32239); assay: Gamide-stimulated inositol phosphate production in COS-7 cells transfected with the CCK-2 receptor; assay type: cell-based; design: COS-7 cells transiently transfected with CCK-2 receptor cDNA; expressed in transfected cells; host or cells: COS-7; conditions: 1 μM DFO, 10 nM Gamide
T1 sequence (P32239 1-447): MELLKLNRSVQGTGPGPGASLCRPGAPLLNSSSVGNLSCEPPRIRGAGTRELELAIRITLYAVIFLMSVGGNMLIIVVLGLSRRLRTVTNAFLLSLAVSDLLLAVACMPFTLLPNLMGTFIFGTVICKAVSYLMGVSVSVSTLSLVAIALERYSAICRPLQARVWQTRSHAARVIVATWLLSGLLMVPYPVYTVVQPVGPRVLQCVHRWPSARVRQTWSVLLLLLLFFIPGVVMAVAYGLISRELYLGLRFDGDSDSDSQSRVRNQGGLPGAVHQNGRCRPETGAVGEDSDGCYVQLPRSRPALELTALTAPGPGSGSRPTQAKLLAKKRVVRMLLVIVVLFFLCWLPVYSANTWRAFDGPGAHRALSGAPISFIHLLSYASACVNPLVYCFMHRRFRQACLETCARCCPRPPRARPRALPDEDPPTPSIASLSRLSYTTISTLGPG
Protocol: Intracellular inositol phosphate production was determined as described previously (Qian et al, 1993). IMGE-5 cells (10^5 cells/ml) were plated in 24-multiwell culture plates in DMEM supplemented with 10% FBS, 200 IU/ml penicillin and 200 μg/ml streptomycin. 24 h later, cells were incubated with DMEM supplemented with antibiotics and Myo-[2-^3H]inositol (2.5 μCi/well) and shifted to 39° C. for 16 h. Cells were then washed with pre-warmed DMEM and incubated (20-30 minutes, 37° C.) with DMEM supplemented with 20 mM LiCl. Loaded cells were then washed in 1 ml of IP buffer (135 mM NaCl, 20 mM N-(2-hydroxyethyl)piperazine-N′-(2-ethanesulfonic acid), 2 mM CaCl2, 1.2 mM MgSO4, 1 mM ethylene glycol-bis(2-aminoethylether)-N,N,N′,N′-tetraacetic acid, 10 mM LiCl, and 0.5% bovine serum albumin, pH 7.45) and incubated with or without agonist in a final volume of 0.5 ml of IP buffer. After 1-h incubation at 37° C., the reaction was stopped by removing the incubation medium and adding 1 ml of a mixture of ethanol/HCl (2000:1; v/v). One ml of each aliquot was applied to a column containing 1.6 ml of a 1:2 (v/v) Dowex AG-1-X8 anion exchange resin in distilled water. The columns were washed with 4 ml of distilled water, followed by 4 ml of 40 mM HCOONH4, and inositol phosphates were eluted with 4 ml of 1 M HCOONH4. The radioactivity of each eluate was counted after addition of Complete phase combining system solution (Amersham, UK). For the positive control, IMGE-5 cells were incubated with a combination of 30 mM NaF and 10 μM AlCl3 under the same experimental conditions.
Gamide-stimulated inositol phosphate production was measured in COS-7 cells transfected with the CCK-2 receptor. […] Bismuth ions alone had no effect on inositol phosphate production in CCK-2 receptor-transfected COS-7 cells and HT29 cells, even at the highest concentration tested.
We then investigated the role of the individual glutamates in biological activity. The effects of the mutants GamideE7A and GamideE8,9A on inositol phosphate production in COS-7 cells transiently transfected with the CCK-2 receptor were compared.

rectal mucosa = assay: Proliferation in the rectal mucosa of rectally defunctioned rats (metaphase-arrested cells); assay type: in vivo; conditions: DFO 400 mg/kg intraperitoneally thrice weekly, 4 weeks; Ggly 2.5 nmol/kg/hr
Protocol: DFO (400 mg/kg) was administered intraperitoneally thrice weekly, and bismuth ions were administered as colloidal bismuth subcitrate (135 mg/kg/12 hours) by oral gavage 5 days per week. After 4 weeks, the rats were injected with vincristine to arrest cycling cells in metaphase, and sacrificed 3 hrs later. Crypt heights in the rectal mucosa, and the number of metaphase arrested cells per crypt, were then determined microscopically.

IMGE-5 cells [3] = assay: IMGE-5 cell proliferation, [3H]-thymidine incorporation; assay type: cell-based, mice
Protocol: In some cases cell proliferation was also measured by [^3H]-thymidine incorporation as described previously (Oiry et al., 2000). Briefly, IMGE-5 cells (10^5/well) were seeded in 24-well plates in medium containing 10% FBS and 1 unit/ml γ-interferon. On the next day cells were serum starved and shifted to 39° C. for 24 hr. Cells were then incubated with or without various compounds at 39° C. for 17 h in medium supplemented with 0.2% bovine serum albumin only. Cells were incubated with 0.5 μCi of [^3H] thymidine in the same medium at 39° C. for 4 h, washed twice with PBS (2.7 mM KCl, 142 mM NaCl, 1.5 mM KH2PO4, 10 mM Na2HPO4, pH 6.95) containing 0.2% bovine serum albumin and incubated at 4° C. for 30 min with 5% trichloroacetic acid. Finally cells were washed with 95% ethanol to remove unincorporated [^3H] thymidine, and lysed with 1 M NaOH. Lysates were transferred to counting vials and neutralized with 1M HCl. The radioactivity of each lysate was counted in a β-counter after the addition of 10 ml of Pico-fluor 40 solution (Packard, Meriden, Conn.).
In some experiments IMGE-5 cells were seeded in a 96-well plate at a density of 3-5×10^3 cells/well in.DMEM containing 10% FBS, and cultured at 33° C.. On the following day, the cells were serum-starved at 33° C. for 24 h. […] The cells were cultured at 39° C. for 24 h, and then harvested using a NUNC cell harvester. The amount of ^3H-thymidine incorporated through DNA synthesis was detected with a β-counter (Packard, Meriden, Conn.). […]

[4] = 1H NMR titration of Ggly fragments with ferric citrate; assay type: binding; conditions: pH 5.3, 278 K, read-out: Apparent Kd for ferric ions from shift of the Glu10 amide resonance
Protocol: The peptides LE5AYG, LE5A, E5AY and E5A (approximately 2 mM) were dissolved in H2O with 5 or 10% ^2H2O. […] Sequence-specific ^1H NMR resonance assignments were made from two-dimensional nuclear Overhauser enhancement spectroscopy (NOESY) and total correlation spectroscopy (TOCSY).
The apparent dissociation constants, Kd, for the complexes between ferric ions and the nonapeptide LE5AYG or the octapeptide LE5AY were obtained from the change in chemical shift of the Glu10 amide proton on addition of ferric citrate using the program Sigmaplot (Jandel Scientific, San Rafael, Calif.), by linear regression of the data to the equation 1/δ=Kd/Δ·1/[Fe^3+]+1/Δ where δ is the change in chemical shift, Δ is the maximum change in chemical shift, and [Fe^3+] is the concentration of added ferric ions. Measurement of Inositol Phosphate Production
In order to define the ligands involved in ferric ion binding, we next investigated the effect of ferric ions on the NMR spectra of the peptides. Ferric ion titration experiments were carried out by addition of 20, 50, or 200 mM ferric citrate solution to the peptides. The pH was maintained at 5.3 by addition of small amounts of NaO^2H or ^2HCl. Concentration, pH, temperature and use of ferrric citrate were in keeping with the conditions that were employed in earlier examples in order to prevent precipitation of peptide or ferric hydroxide. […]

Effect on Gamide-stimulated inositol phosphate production (CCK-2 receptor)	Kd [4]	Compound	Effect on Ggly-stimulated IMGE-5 cell migration (IMGE-5 cells [1]; DFO 1 μM)	Inhibition of human hepatomas (human hepatomas)	Effect on Ggly-stimulated IMGE-5 cell proliferation (IMGE-5 cells [2]; MTT and thymidine assays)	Reduction of Gamide-stimulated IMGE-5 cell proliferation (IMGE-5 cells [2]; MTT, 72 h)	Inhibition of proliferation of hepatoma cell lines in vitro (hepatoma cell lines)	Effect on stimulation of proliferation of the rectal mucosa by Ggly (rectal mucosa)	S (%), maximum % stimulation (IMGE-5 cells [3]; IMGE cells, thymidine uptake, best fit at saturating concentration)	Stimulation of proliferation of IMGE cells (IMGE-5 cells [3]; incorporation of [3H]-thymidine)	Effect of DFO on proliferation induced by the peptide (IMGE-5 cells [3]; peptide 100 nM, plus or minus 1 μM DFO, [3H]-thymidine incorporation)	Stimulation of cell migration compared with Ggly (IMGE-5 cells [1]; 100 nM peptide, 24 h)	Effect of DFO on peptide-stimulated migration (IMGE-5 cells [1]; 100 nM peptide, DFO in the medium)
had no effect	–	CC(=O)N(O)CCCCCNC(=O)CCC(=O)N(O)CCCCCNC(=O)CCC(=O)N(O)CCCCCN [DFO, desferrioxamine]	completely blocked	effective inhibitor	completely blocked	60%	effective inhibitors	significantly reduced	–	–	–	–	–
–	7 mM	LEEEEEAYG [LE5AYG]	–	–	–	–	–	–	45.8%	significantly stimulated proliferation	completely blocked; also recorded: significantly blocked by DFO	more effective than Ggly	reversed by inclusion of DFO
